From patent US6291527A (priority 1998, dated 2001)
Where a name gives a salt, the structure may show the parent alone.

Assays:
[1] = animal studies of the three salts vs Ketoprofen acid and Ketoprofen sodium salt: distribution and kinetics; assay type: in vivo, experimental animals; settings: for active substance concentration in the inflamed site: injection, vs Ketoprofen sodium salt; for kinetic parameters after oral administration: vs Ketoprofen acid and Ketoprofen sodium salt
Excerpt: The three above mentioned Ketoprofen salts were compared with Ketoprofen acid and Ketoprofen sodium salt in animal studies.

[2] = tested on: inflammatory exudate (IE); experiment: foreign body (sponge) method in the rat: inflammatory exudate volume; assay type: in vivo; settings: for IE (inflammatory exudate) volume / % inhibition versus controls of IE: 8 hours; for IE (inflammatory exudate) volume: mean ± MSE, controls 5.15 ± 0.28
Description: (§1) These tests involved the use of 100 male CD strain rats (Charles River, Calco, LC, Italy) weighing 180±8 g. The animals were fasted for 12 hours (water ad libitum) before being used for the experiment.
(§2) The inflammatory reaction with the formation of exudate was induced by using sterilized polyester sponges (4×1.5×0.5 cm) soaked in carrageen dissolved at a 2% concentration in sterile physiological solution. The rats were anesthetized lightly with ether and two sponges per rat were implanted subcutaneously in a previously shaven dorsal area.
(§3) The sponges were removed 8 hours later after having sacrificed the animals by ether euthanasia, and immediately placed in large polyethylene 50 ml test tubes containing 10 ml of heparinized physiological solution. The test tubes were then subjected to centrifugation (1000 rotations; 15 minutes), followed by removal of the sponges and accurate measurement of the volume of the remaining fluid. Always using the Higgs et al. method, the acid lipids present in the fluid were extracted in chloroform with prior dilution in ethanol and acidification to pH 3. After complete evaporation of the chloroform, the remaining dry residue was dissolved in physiological solution and used for the immunoenzymatic assay of prostaglandin E2 (PGE2).
(§4) All the other reagents used for the tests were purchased from Merck-Bracco (Milan, Italy).

[3] = tested on: carrageen edema; experiment: carrageen edema test in the rat (hind paw volume, plethysmometer); settings: rat, oral; for evolution of paw volume (delta in ml) at 1st hour / evolution of paw volume (delta in ml) at 2nd hour / evolution of paw volume (delta in ml) at 3rd hour / evolution of paw volume (delta in ml) at 4th hour / evolution of paw volume (delta in ml) at 5th hour / evolution of paw volume (delta in ml) at 6th hour: mean ± MSE; for % inhibition vs controls (paw edema AUC): p < 0.001; for AUC (mean ± MSE) of increase in paw volume: paw volume (delta in ml) vs time (0 to 6 hours), controls 4.23 ± 0.26; for oral ED50 (carrageen edema, extrapolated from AUC): 95% conf. lim. KGS 0.733-1.474, KLS 1.198-1.567
[4] = tested on: prostaglandin E2 (PGE2); experiment: foreign body (sponge) method in the rat: PGE2 in the inflammatory exudate (immunoenzymatic assay); assay type: in vivo; settings: rat, oral, listed as KLS; for PGE2 concentration in the inflammatory exudate / % inhibition versus controls of PGE2: 8 hours; for PGE2 concentration in the inflammatory exudate: mean, controls 98.7 ± 4.7
Description: as §1, §2, §3, §4

[5] = rat, oral, 0.5 mg/kg, listed as KLS
[6] = rat, oral, 1 mg/kg, listed as KLS
[7] = rat, oral, 2 mg/kg, listed as KLS
[8] = rat, oral, 4 mg/kg, listed as KLS

CC(C(=O)O)c1cccc(C(=O)c2ccccc2)c1 (stereo not shown) [Ketoprofen Hydroxyproline salt]
active substance concentration in the inflamed site [1]: intermediate concentrations between the sodium salt and the Glucosamine salt
kinetic parameters after oral administration [1]: significantly different

CC(C(=O)O)c1cccc(C(=O)c2ccccc2)c1 (stereo not shown) [Ketoprofen Lysine salt]
control of the inflammatory response to sponge implantation ([2]; rat, 0.5, 1, 2 and 4 mg/kg per os): able to control the inflammatory response
IE (inflammatory exudate) volume [2, 5]: 4.33 ± 0.26 mL
% inhibition versus controls of IE [2, 5]: 15.9%
IE (inflammatory exudate) volume [2, 6]: 3.82 ± 0.15 mL
% inhibition versus controls of IE [2, 6]: 25.8%
IE (inflammatory exudate) volume [2, 7]: 2.97 ± 0.19 mL
% inhibition versus controls of IE [2, 7]: 42.3%
IE (inflammatory exudate) volume [2, 8]: 1.68 ± 0.14 mL
% inhibition versus controls of IE [2, 8]: 67.4%
IE oral ED50 ([2]; rat, oral, 95% confidence limits KGS 1.802-2.381, KLS 2.334-3.094, 480 min, listed as KLS): 2.714 mg/kg
evolution of paw volume (delta in ml) at 1st hour ([3]; 0.5 mg/kg, controls 0.40 ± 0.02, listed as KLS): 0.32 ± 0.02 mL
evolution of paw volume (delta in ml) at 2nd hour ([3]; 0.5 mg/kg, controls 0.71 ± 0.02, listed as KLS): 0.53 ± 0.03 mL
evolution of paw volume (delta in ml) at 3rd hour ([3]; 0.5 mg/kg, controls 0.87 ± 0.03, listed as KLS): 0.66 ± 0.04 mL
evolution of paw volume (delta in ml) at 4th hour ([3]; 0.5 mg/kg, controls 0.93 ± 0.03, listed as KLS): 0.70 ± 0.03 mL
evolution of paw volume (delta in ml) at 5th hour ([3]; 0.5 mg/kg, controls 0.90 ± 0.04, listed as KLS): 0.68 ± 0.02 mL
evolution of paw volume (delta in ml) at 6th hour ([3]; 0.5 mg/kg, controls 0.84 ± 0.04, listed as KLS): 0.64 ± 0.03 mL
% inhibition vs controls (paw edema AUC) ([3]; 0.5 mg/kg, listed as KLS): 24.1%
AUC (mean ± MSE) of increase in paw volume ([3]; 0.5 mg/kg, listed as KLS, 0.5 mg/kg): 3.21 ± 0.17
evolution of paw volume (delta in ml) at 1st hour ([3]; 1 mg/kg, listed as KLS): 0.24 ± 0.02 mL
evolution of paw volume (delta in ml) at 2nd hour ([3]; 1 mg/kg, listed as KLS): 0.43 ± 0.03 mL
evolution of paw volume (delta in ml) at 3rd hour ([3]; 1 mg/kg, listed as KLS): 0.54 ± 0.03 mL
evolution of paw volume (delta in ml) at 4th hour ([3]; 1 mg/kg, listed as KLS): 0.59 ± 0.03 mL
evolution of paw volume (delta in ml) at 5th hour ([3]; 1 mg/kg, listed as KLS): 0.57 ± 0.03 mL
evolution of paw volume (delta in ml) at 6th hour ([3]; 1 mg/kg, listed as KLS): 0.49 ± 0.03 mL
% inhibition vs controls (paw edema AUC) ([3]; 1 mg/kg, listed as KLS): 38.0%
AUC (mean ± MSE) of increase in paw volume ([3]; 1 mg/kg, listed as KLS, 1 mg/kg): 2.62 ± 0.12
evolution of paw volume (delta in ml) at 1st hour ([3]; 2 mg/kg, listed as KLS): 0.13 ± 0.02 mL
evolution of paw volume (delta in ml) at 2nd hour ([3]; 2 mg/kg, listed as KLS): 0.23 ± 0.02 mL
evolution of paw volume (delta in ml) at 3rd hour ([3]; 2 mg/kg, listed as KLS): 0.28 ± 0.02 mL
evolution of paw volume (delta in ml) at 4th hour ([3]; 2 mg/kg, listed as KLS): 0.29 ± 0.02 mL
evolution of paw volume (delta in ml) at 5th hour ([3]; 2 mg/kg, listed as KLS): 0.28 ± 0.02 mL
evolution of paw volume (delta in ml) at 6th hour ([3]; 2 mg/kg, listed as KLS): 0.23 ± 0.03 mL
% inhibition vs controls (paw edema AUC) ([3]; 2 mg/kg, listed as KLS): 68.6%
AUC (mean ± MSE) of increase in paw volume ([3]; 2 mg/kg, listed as KLS, 2 mg/kg): 1.33 ± 0.07
oral ED50 (carrageen edema, extrapolated from AUC) [3]: 1.383 mg/kg
oral ED50 (carrageen edema, extrapolated from AUC) ([3]; listed as KLS): 1.383 mg/kg
PGE2 concentration in the inflammatory exudate ([4]; 0.5 mg/kg): 78.1 ng/mL
% inhibition versus controls of PGE2 ([4]; 0.5 mg/kg): 20.9%
PGE2 concentration in the inflammatory exudate ([4]; 1 mg/kg): 67.9 ng/mL
% inhibition versus controls of PGE2 ([4]; 1 mg/kg): 31.2%
PGE2 concentration in the inflammatory exudate ([4]; 2 mg/kg): 55.6 ng/mL
% inhibition versus controls of PGE2 ([4]; 2 mg/kg): 43.7%
PGE2 concentration in the inflammatory exudate ([4]; 4 mg/kg): 32.8 ng/mL
% inhibition versus controls of PGE2 ([4]; 4 mg/kg): 66.8%
PGE2 oral ED50 ([4]; 95% confidence limits KGS 1.848-2.131, KLS 2.215-3.005, 480 min): 2.610 mg/kg

CC(C(=O)O)c1cccc(C(=O)c2ccccc2)c1 (stereo not shown) [Ketoprofen Proline salt]
active substance concentration in the inflamed site [1]: intermediate concentrations between the sodium salt and the Glucosamine salt
kinetic parameters after oral administration [1]: significantly different
